Data published in patent US20260250320A1, “LIPIDATED PEPTIDE INHIBITORS OF INTERLEUKIN-23 RECEPTOR” (Janssen Pharmaceutica NV, priority 2023, published 2026).
*1 amine or outer side, *2 acyl side, *3 side chain or, on linkers, in order; H or OH if unused. Where a SMILES comes first, the peptide text is derived from it. Bridges are numbered along the chain shown (N, C = ends). Side-chain parts run from the residue outwards. [ ]: non-standard residue; d: D form. The star is where a group is joined. X18 = O=C(O)CCCCCCCCCCCCCCCCC(=O)N[C@@H](CCC(=O)NCCOCCOCCOCCOCCOCOCCOCCOCCOCCOCCOCCOCCC(=O)*)C(=O)O; PEG12 = NCCOCCOCCOCCOCCOCCOCCOCCOCCOCCOCCOCCOCCC(=O)O; Trp(7-Me) = Cc1cccc2c(C[C@H](N)C(=O)O)c[nH]c12; C18 diacid = O=C(O)CCCCCCCCCCCCCCCCC(=O)*; γGlu = O=C(O)[C@H](CCC(=O)[*:2])N[*:1]; 2Nal = N[C@@H](Cc1ccc2ccccc2c1)C(=O)O; AEF = NCCOc1ccc(C[C@H](N)C(=O)O)cc1; 3Pal = N[C@@H](Cc1cccnc1)C(=O)O; Lys(Me) = CNCCCC[C@H](N)C(=O)O; Pen = CC(C)(S)[C@H](N)C(=O)O; Thp = NC1(C(=O)O)CCOCC1; X1 = C[N+](C)(C)CCCCC*; Sar = CNCC(=O)O

Experiments:
[1] = tested on: IL-23-stimulated phosphorylated STAT3 in peripheral blood mononuclear cells (PBMCs); experiment: PBMC pSTAT3 Assay; format: cell-based; conditions: PBMCs from healthy donors; 30 min preincubation with peptide; IL-23 5 ng/mL for 30 min; phospho-STAT3 by MSD
Method in brief: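 Phospho-STAT3 quantified by Meso Scale assay in lysates of PBMCs exposed to IL-23 (5 ng/mL, 30 min, 37 °C) after 30 min peptide pretreatment. Cells were cryopreserved donor PBMCs activated 4 days with anti-CD3 plus IL-1β (100 ng/mL) and starved ~4 h; IC50 reported.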

IL-23R = biological target: T1, IL-23R (Homo sapiens, UniProt Q5VWK5); experiment: IL23R Reporter Assay; format: cell-based; conditions: HEK293 cells containing IL-23R, IL-12Rβ1 and STAT-inducible firefly luciferase reporter; 10 ng/mL IL-23 (EC90); 5 h
T1 construct: HEK293 cells containing IL-23R, IL-12Rβ1 and a firefly luciferase reporter gene driven by a STAT-inducible promoter (Promega); host or cells: HEK293
T1 sequence (Q5VWK5 24-629): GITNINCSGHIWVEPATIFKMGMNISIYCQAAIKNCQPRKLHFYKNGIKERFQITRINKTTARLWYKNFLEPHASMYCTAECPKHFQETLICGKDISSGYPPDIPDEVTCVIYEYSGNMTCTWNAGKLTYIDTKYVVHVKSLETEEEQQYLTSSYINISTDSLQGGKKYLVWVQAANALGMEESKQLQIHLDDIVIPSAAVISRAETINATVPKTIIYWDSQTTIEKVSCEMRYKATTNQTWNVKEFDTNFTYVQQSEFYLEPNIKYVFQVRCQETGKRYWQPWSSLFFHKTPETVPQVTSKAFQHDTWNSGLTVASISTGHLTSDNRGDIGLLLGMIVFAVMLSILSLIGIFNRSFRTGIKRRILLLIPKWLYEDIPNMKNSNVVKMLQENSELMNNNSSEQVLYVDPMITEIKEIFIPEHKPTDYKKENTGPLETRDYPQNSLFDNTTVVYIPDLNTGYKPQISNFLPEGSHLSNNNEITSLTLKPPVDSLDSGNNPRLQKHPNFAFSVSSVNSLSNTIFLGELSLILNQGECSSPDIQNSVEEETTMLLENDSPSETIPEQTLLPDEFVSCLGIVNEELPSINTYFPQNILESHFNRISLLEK
Method in brief: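 IC50 values were fitted with a 4-parameter Hill equation to luciferase signal, scaled between IL-23-only wells (0% inhibition) and 30 μM reference inhibitor (100%). The readout was a STAT-inducible reporter in IL-23R/IL-12Rβ1 HEK293 cells, stimulated with added 10 ng/mL IL-23 (EC90) for 5 h at 37° C and developed with BioGlo.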

IC50 (IL-23R) [nM] | SMILES | IC50 [1] [nM]
< 50 | CC(=O)N(C)CCCC[C@@H]1NC(=O)[C@H](Cc2c[nH]c3c(C)cccc23)NC(=O)[C@H]([C@@H](C)O)NC(=O)[C@H](CC(=O)N(C)C)NC(=O)[C@@H](NC(=O)CCOCCOCCOCCOCCOCCOCCOCCOCCOCCOCCOCCOCCNC(=O)CC[C@H](NC(=O)CCCCCCCCCCCCCCCCC(=O)O)C(=O)O)C(C)(C)SSC(C)(C)[C@@H](C(=O)N[C@@H](Cc2ccc(OCCCCC[N+](C)(C)C)cc2)C(=O)N[C@@H](Cc2ccc3ccccc3c2)C(=O)NC2(C(=O)N[C@@H](CCCCN(C)C(C)=O)C(=O)N[C@@H](CC(N)=O)C(=O)N[C@@H](Cc3cccnc3)C(=O)N(C)CC(=O)N(C)C)CCOCC2)NC1=O [compound 95, HOC18gEPEG12CO-Pen(3)-N(N(Me)2)-T-7MeW-K(NMeAc)-Pen(3)-TMAPF-2Nal-THP-K(NMeAc)-N-3Pya-Sar-CON(Me)2] ({C18 diacid-γGlu-PEG12}-[Pen]D(NMe2)T[Trp(7-Me)][Lys(Me)](Ac)[Pen]Y(X1)[2Nal][Thp][Lys(Me)](Ac)N[3Pal][Sar]-NMe2; disulfide 1-6) | < 0.5
< 50 | CC(=O)N[C@@H]1C(=O)N[C@@H](CC(N)=O)C(=O)N[C@@H]([C@@H](C)O)C(=O)N[C@@H](Cc2c[nH]c3ccccc23)C(=O)N[C@@H](CCCCNC(=O)CCOCCOCCOCCOCCOCCOCCOCCOCCOCCOCCOCCOCCNC(=O)CC[C@H](NC(=O)CCCCCCCCCCCCCCCCC(=O)O)C(=O)O)C(=O)N[C@H](C(=O)N[C@@H](Cc2ccc(OCCN)cc2)C(=O)N[C@@H](Cc2ccc3ccccc3c2)C(=O)NC2(C(=O)N[C@@H](CCC(=O)O)C(=O)N[C@@H](CC(N)=O)C(=O)N[C@@H](Cc3cccnc3)C(=O)N(C)CC(N)=O)CCOCC2)C(C)(C)SSC1(C)C [compound 96, MeCO-Pen(3)-N-T-7MeW-K(PEG12gEC18OH)-Pen(3)-AEF-2Nal-THP-E-N-3Pya-Sar-CONH2] | < 0.5
< 50 | CC(=O)NCCCC[C@@H]1NC(=O)[C@H](Cc2c[nH]c3c(C)cccc23)NC(=O)[C@H]([C@@H](C)O)NC(=O)[C@H](CCCCNC(=O)CCOCCOCCOCCOCCOCCOCCOCOCCOCCOCCOCCOCCNC(=O)CC[C@H](NC(=O)CCCCCCCCCCCCCCCCC(=O)O)C(=O)O)NC(=O)[C@@H](NC(C)=O)C(C)(C)SSC(C)(C)[C@@H](C(=O)N[C@@H](Cc2ccc(OCCN)cc2)C(=O)N[C@@H](Cc2ccc3ccccc3c2)C(=O)NC2(C(=O)N[C@@H](CCC(=O)O)C(=O)N[C@@H](CC(N)=O)C(=O)N[C@@H](Cc3cccnc3)C(=O)N(C)CC(N)=O)CCOCC2)NC1=O [compound 97, MeCO-Pen(3)-K(PEG12gEC18OH)-T-7MeW-K(Ac)-Pen(3)-AEF-2Nal-THP-E-N-3Pya-Sar-CONH2] (Ac-[Pen]K(X18)T[Trp(7-Me)]K(Ac)[Pen][AEF][2Nal][Thp]EN[3Pal][Sar]-NH2; disulfide 1-6) | < 0.5
< 50 | CC(=O)NCCCC[C@@H]1NC(=O)[C@H](Cc2c[nH]c3c(C)cccc23)NC(=O)[C@H]([C@@H](C)O)NC(=O)[C@H](CC(N)=O)NC(=O)[C@@H](NC(=O)[C@@H](CCCCNC(=O)CCOCCOCCOCCOCCOCCOCCOCCOCCOCCOCCOCCOCCNC(=O)CC[C@H](NC(=O)CCCCCCCCCCCCCCCCC(=O)O)C(=O)O)NC(C)=O)C(C)(C)SSC(C)(C)[C@@H](C(=O)N[C@@H](Cc2ccc(OCCN)cc2)C(=O)N[C@@H](Cc2ccc3ccccc3c2)C(=O)NC2(C(=O)N[C@@H](CCCCNC(C)=O)C(=O)N[C@@H](CC(N)=O)C(=O)N[C@@H](Cc3cccnc3)C(=O)N(C)CC(N)=O)CCOCC2)NC1=O [compound 98, MeCO-k(PEG12gEC18OH)-Pen(3)-N-T-7MeW-K(Ac)-Pen(3)-AEF-2Nal-THP-K(Ac)-N-3Pya-Sar-CONH2] (Ac-[dK]([PEG12-γGlu-C18 diacid])[Pen]NT[Trp(7-Me)]K(Ac)[Pen][AEF][2Nal][Thp]K(Ac)N[3Pal][Sar]-NH2; disulfide 2-7) | < 0.5
< 50 | CC(=O)NCCCC[C@@H]1NC(=O)[C@H](Cc2c[nH]c3c(C)cccc23)NC(=O)[C@H]([C@@H](C)O)NC(=O)[C@H](CCCCNC(=O)CCOCCOCCOCCOCCOCCOCCOCCOCCOCCOCCOCCOCCNC(=O)CC[C@H](NC(=O)CCCCCCCCCCCCCCCCC(=O)O)C(=O)O)NC(=O)[C@@H](NC(=O)[C@@H](CCCNC(=N)N)NC(C)=O)C(C)(C)SSC(C)(C)[C@@H](C(=O)N[C@@H](Cc2ccc(OCCN)cc2)C(=O)N[C@@H](Cc2ccc3ccccc3c2)C(=O)NC2(C(=O)N[C@@H](CCC(=O)O)C(=O)N[C@@H](CC(N)=O)C(=O)N[C@@H](Cc3cccnc3)C(=O)N(C)CC(N)=O)CCOCC2)NC1=O [compound 99, MeCO-r-Pen(3)-K(PEG12gEC20OH)-T-7MeW-K(Ac)-Pen(3)-AEF-2Nal-THP-E-N-3Pya-Sar-CONH2] (Ac-[dR][Pen]K([PEG12-γGlu-C18 diacid])T[Trp(7-Me)]K(Ac)[Pen][AEF][2Nal][Thp]EN[3Pal][Sar]-NH2; disulfide 2-7) | < 0.5
< 50 | CC(=O)NCCCC[C@@H]1NC(=O)[C@H](CC2CNc3c(C)cccc32)NC(=O)[C@H]([C@@H](C)O)NC(=O)[C@H](CC(N)=O)NC(=O)[C@@H](NC(C)=O)C(C)(C)SSC(C)(C)[C@@H](C(=O)N[C@@H](Cc2ccc(OCCN)cc2)C(=O)N[C@@H](Cc2ccc3ccccc3c2)C(=O)NC2(C(=O)N[C@@H](CCCCNC(=O)CCOCCOCCOCCOCCOCCOCCOCCOCCOCCOCCOCCOCCNCCC[C@H](NC(=O)CCCCCCCCCCCCCCCCC(=O)O)C(=O)O)C(=O)N[C@@H](C)C(=O)N[C@@H](Cc3ccccc3)C(=O)N(C)CC(N)=O)CCOCC2)NC1=O (stereo partly drawn) [compound 100, MeCO-Pen(3)-N-T-7MeW-K(Ac)-Pen(3)-AEF-2Nal-THP-K(PEG12gEC18OH)-N-3Pya-Sar-CONH2] | < 0.5
< 50 | CC(=O)NCCCC[C@@H]1NC(=O)[C@H](Cc2c[nH]c3c(C)cccc23)NC(=O)[C@H]([C@@H](C)O)NC(=O)[C@H](CC(N)=O)NC(=O)[C@@H](NC(C)=O)C(C)(C)SSC(C)(C)[C@@H](C(=O)N[C@@H](Cc2ccc(OCCN)cc2)C(=O)N[C@@H](Cc2ccc3ccccc3c2)C(=O)NC2(C(=O)N[C@@H](CCCCNC(C)=O)C(=O)N[C@@H](CC(N)=O)C(=O)N[C@@H](Cc3cccnc3)C(=O)N(C)CC(=O)N[C@@H](CCCCNC(=O)CCOCCOCCOCCOCCOCCOCCOCCOCCOCCOCCOCCOCCNC(=O)CC[C@H](NC(=O)CCCCCCCCCCCCCCCCCCC(=O)O)C(=O)O)C(N)=O)CCOCC2)NC1=O [compound 101, MeCO-Pen(3)-N-T-7MeW-K(Ac)-Pen(3)-AEF-2Nal-THP-K(Ac)-N-3Pya-Sar-K(PEG12gEC20OH)-CONH2] | < 0.5
< 50 | CC(=O)NCCCC[C@@H]1NC(=O)[C@H](Cc2c[nH]c3c(C)cccc23)NC(=O)[C@H]([C@@H](C)O)NC(=O)[C@H](CC(N)=O)NC(=O)[C@@H](NC(C)=O)C(C)(C)SSC(C)(C)[C@@H](C(=O)N[C@@H](Cc2ccc(OCCN)cc2)C(=O)N[C@@H](Cc2ccc3ccccc3c2)C(=O)NC2(C(=O)N[C@@H](CCCCNC(C)=O)C(=O)N[C@@H](CC(N)=O)C(=O)N[C@@H](Cc3cccnc3)C(=O)N(C)CC(=O)N[C@@H](CCCCNC(=O)CCOCCOCCOCCOCCOCCOCCOCCOCCOCCOCCOCCOCCNC(=O)CC[C@H](NC(=O)CCCCCCCCCCCCCCCCC(=O)O)C(=O)O)C(N)=O)CCOCC2)NC1=O [compound 102, MeCO-Pen(3)-N-T-7MeW-K(Ac)-Pen(3)-AEF-2Nal-THP-K(Ac)-N-3Pya-Sar-K(PEG12gEC18OH)-CONH2] | < 0.5
< 50 | CC(=O)NCCCC[C@@H]1NC(=O)[C@H](Cc2c[nH]c3c(C)cccc23)NC(=O)[C@H]([C@@H](C)O)NC(=O)[C@H](CC(N)=O)NC(=O)[C@@H](NC(C)=O)C(C)(C)SSC(C)(C)[C@@H](C(=O)N[C@@H](Cc2ccc(OCCN)cc2)C(=O)N[C@@H](Cc2ccc3ccccc3c2)C(=O)NC2(C(=O)N[C@@H](CCC(=O)O)C(=O)N[C@@H](CC(N)=O)C(=O)N[C@@H](Cc3cccnc3)C(=O)N(C)CC(=O)N[C@@H](CCCCNC(=O)CCOCCOCCOCCOCCOCCOCCOCCOCCOCCOCCOCCOCCNC(=O)CC[C@H](NC(=O)CCCCCCCCCCCCCCCCCCC(=O)O)C(=O)O)C(N)=O)CCOCC2)NC1=O [compound 103, MeCO-Pen(3)-N-T-7MeW-K(Ac)-Pen(3)-AEF-2Nal-THP-E-N-3Pya-Sar-K(PEG12gEC20OH)-CONH2] | < 0.5
